# Reference: US8889378B2, “Cytochrome C synthesis inhibitors” (priority 2006, dated 2014)
# Assays:
# [1] = system: system I cytochrome c biogenesis (heme acquisition); test: Exogenous heme addition, E. coli ΔccmΔhemA (RK105) with system I, pRGK332 and pHPEX2; format: cell-based
# Description: (§1) Cultures of RK105 (E. coli ΔccmΔhemA) harboring pRGK333 (system I), pRGK332 (cytochrome c4:6×His), and pHPEX2 (Varnado and Goodwin, 2004) or pRGK348 (system II) and pRGK332 were grown in LB overnight in the presence of 300 μM aminolevulinic acid (ALA). 100 mL cultures were started from the overnight culture with a 1% inoculum in LB devoid of ALA for two and one-half hours. After two and one-half hours, the 100 mL cultures had exhausted their cellular supply of ALA and required exogenous heme (or ALA) for further growth. The ALA exhausted cultures were divided into 5 mL aliquots to which IPTG (1 mM, to induce the synthesis of the system I proteins) and heme (0 μM to 100 μM) (Sigma) were added. It was discovered that heme at greater than 60 μM would precipitate over time with no IPTG (1 mM) present and at greater than 100 μM in the presence of IPTG. After one hour, arabinose (0.2% to induce the synthesis of cytochrome c4:6×His) was added and cultures were grown for an additional three hours. Cells were harvested and protein was extracted using B-PER as previously described (Feissner et al., 2006). […]
# Heme stains were performed as described (Feissner et al., 2003) using SuperSignal Femto chemiluminescent substrate (Pierce). Heme stain quantitation used LOLITA II (Low Light Test Array; raytestUSA; Wilmington, N.C.) for standardization of light intensity detection on an LAS1000plus Luminescent Image Analyzer CCD camera system. […] Chemiluminescence from heme stains and Western blots were detected using an LAS-1000plus Luminescent Image Analyzer CCD camera system (Fujifilm). Protein concentrations were determined using the BCA assay (Pierce) using BSA as a standard. […] Protein concentrations were determined with the BCA assay kit (Pierce) using BSA as a standard.
# To directly examine the difference in heme acquisition between systems I and II, varying concentrations of exogenous heme were supplied to E. coli ΔccmΔhemA, expressing ChuA with pRGK332 and either system plasmid. […] The cytochrome c4 acts as a trap, allowing quantitation of the levels of heme that have fluxed through each system. […]
# [2] = system: system II (CcsBA) cytochrome c biogenesis (heme acquisition); test: Exogenous heme addition, E. coli ΔccmΔhemA (RK105) with system II (CcsBA), chuA and pRGK332; format: cell-based; details: averaged over 3 trials, Hill curve fit, read-out: heme concentration at which holocytochrome c4:6×His levels reached 50% of maximum synthesis
# Description: Cultures of RK105 (E. coli ΔccmΔhemA) harboring pRGK333 (system I), pRGK332 (cytochrome c4:6×His), and pHPEX2 (Varnado and Goodwin, 2004) or pRGK348 (system II) and pRGK332 were grown in LB overnight in the presence of 300 μM aminolevulinic acid (ALA). 100 mL cultures were started from the overnight culture with a 1% inoculum in LB devoid of ALA for two and one-half hours. After two and one-half hours, the 100 mL cultures had exhausted their cellular supply of ALA and required exogenous heme (or ALA) for further growth. The ALA exhausted cultures were divided into 5 mL aliquots to which IPTG (1 mM, to induce the synthesis of the system I proteins) and heme (0 μM to 100 μM) (Sigma) were added. […]
# Heme stains were performed as described (Feissner et al., 2003) using SuperSignal Femto chemiluminescent substrate (Pierce). Heme stain quantitation used LOLITA II (Low Light Test Array; raytestUSA; Wilmington, N.C.) for standardization of light intensity detection on an LAS1000plus Luminescent Image Analyzer CCD camera system. […] Chemiluminescence from heme stains and Western blots were detected using an LAS-1000plus Luminescent Image Analyzer CCD camera system (Fujifilm). Protein concentrations were determined using the BCA assay (Pierce) using BSA as a standard. […] Protein concentrations were determined with the BCA assay kit (Pierce) using BSA as a standard. […]
# [3] = Heme precipitation in culture medium; format: physicochemical
# Description: as §1, with “2006). Cytochrome c4:6×His was purified from 200 μg of total protein over nickel affinity resin to eliminate free heme. 20 μL of each sample were subjected to SDS-PAGE, transferred to nitrocellulose, and heme stained as described above.” for “2006).”
# E. coli ΔccmΔhemA = test: Growth of E. coli ΔccmΔhemA on exogenous heme, without or with the heme porin ChuA (pHPEX2); format: cell-based
# Description: FIG. 13. Growth of E. coli DccmDhemA with exogenous heme. Overnight cultures of E. coli DccmDhemA or containing pHPEX2 and (A) pRGK333 or (B) pRGK334 were diluted into LB broth without ALA or heme. The cultures were incubated aerobically at 37° C. for two and one-half hours to exhaust the cultures for ALA. Heme was added at the indicated concentrations when noted and growth (A600) was measured. For reference, the growth of E. coli Dccm (wild-type) containing either pRGK333 or pRGK334 is shown (t).
# To determine if exogenous heme rather than ALA could support growth, an overnight culture of E. coli ΔccmΔhemA, supplemented with 300 μM ALA, was used to inoculate [1% (v/v)] fresh LB medium containing different concentrations of heme (0 μM to 100 μM).
# Since the outer membranes of some strains of E. coli are poorly permeable to heme, the heme porin from pHPEX2 (Varnado and Goodwin, 2004) was expressed. The tetracycline-resistant pHPEX2 expresses the gene for the heme receptor (chuA) from E. coli O157:H7 using the IPTG-inducible lacUV5 promoter. ChuA is a member of a class of relatively nonspecific enterobacterial heme receptors that are TonB-dependent and facilitate heme acquisition from the environment and recognize free heme and heme bound to a variety of proteins (see FIG. 11). Growth of E. coli ΔccmΔhemA containing either pRGK333 or pRGK334 and pHPEX2 was dependant on exogenous heme (see FIG. 13). […] The pHPEX2 also facilitates the heme-dependent production of the B. pertussis c4:6×His when the plasmids with system I or system II are present (see below).
# [4] = system: system I cytochrome c biogenesis; test: Heme competition with ZnPPIX inhibition, E. coli Δccm with system I, ChuA and cytochrome c4:Pho; format: cell-based; details: grown with 12.5 μM ZnPPIX
# Description: FIG. 22. Western blot (A: lanes 1-7) and heme stain (B: lanes 1-5) indicating ZnPPIX competes with heme. Overnight cultures of E. coli Dccm containing pRGK333, pRGK331, and pHPEX2 were diluted into fresh LB broth containing […] ZnPPIX and grown to mid-log phase. IPTG (1 mM) was added and incubation continued for 30 minutes. Heme was added and incubation continued for 30 minutes. Arabinose (0.2%) was added for three hours to induce synthesis of cytochrome c4:PhoA and soluble B-PER protein extracts were prepared. The concentrations ([…]) of ZnPPIX and heme are given above each lane. Above the panel pSysI is pRGK333, pc4:PhoA is cytochrome c4:PhoA, and Dccm is E. coli Dcam.
# ZnPPIX is inhibiting downstream of holoCcmE since this “heme reservoir” is no longer available for cytochrome c4 biogenesis. The WWD containing protein CcmF may the target for ZnPPIX (see FIG. 11). If the target for ZnPPIX is a heme binding protein (site), then exogenous heme should compete with this inhibition (i.e. ZnPPIX binding). […] The same heme stained polypeptides were confirmed to be full length cytochrome c4:Pho fusion proteins by Western blot (FIG. 22A, lane 1-5). ZnPPIX is a specific inhibitor of c-type cytochrome biogenesis by either system I or system II, but heme is able to compete with ZnPPIX inhibition.
substance,measurement,setting,value
iron protoporphyrin IX [heme],heme concentration at which maximum synthesis of holocytochrome c4:6×His occurs,[1]; system I,less than 10 μM
same,"apparent affinity for heme, system I versus system II",[1]; system I compared with system II,at least twenty fold higher
same,EC50,"[1]; system I, averaged over 4 trials, Hill curve fit, read-out: heme concentration restoring holocytochrome c4:6×His levels to 50% of maximum",1.9 µM
same,EC50,[2],54.4 µM
same,heme concentration above which heme would precipitate over time,[3]; in the presence of IPTG,greater than 100 μM
same,heme concentration above which heme would precipitate over time,[3]; no IPTG (1 mM) present,greater than 60 μM
same,growth on exogenous heme,"E. coli ΔccmΔhemA; chuA (pHPEX2) expressed, pRGK333 or pRGK334",growth to near wild-type levels
same,growth on exogenous heme,"E. coli ΔccmΔhemA; heme 0 μM to 100 μM, no heme porin",not detected until four to five days
same,holocytochrome c4:6×His production on exogenous heme,"E. coli ΔccmΔhemA; no heme porin, system I or system II plasmid and c4:6×His reporter",no holocytochrome c4:6×His production was detected
same,holocytochrome c4:Pho with increasing concentrations of additional heme,[4],corresponding increase in holocytochrome c4:Pho
